Experimental data taken from patent US20190119200A1, “TERTIARY AMIDES AND METHOD OF USE” (AbbVie Inc., priority 2016, published 2019).

Molecular target: T1, LPAR1 (Homo sapiens, UniProt Q92633)
T1 construct: host or cells: U2OS
Experiment: LPAR1 FLIPR Assay
Format: cell-based
Conditions: U2OS cells stably expressing LPAR1, LPA (EC80), Calcium 6 FLIPR dye; for Emax: read-out: Maximum Inhibition
Method: U2OS cells stably expressing LPAR1 (Life Technologies #K1519A) were plated at 12000 cells/well in growth medium (McCoy's 5A medium(Life Technologies 16600-082)) with 10% dFBS (Life Technologies 26400-036), 0.1 mM non-essential amino acids, 25 mM HEPES, 1 mM sodium pyruvate, 1% penicillin/streptomycin, 50 μg/mL hygromycin, and 100 μg/mL Geneticin® in black-walled, clear-bottom 384-well plates (Corning #3683) and incubated in humidified 5% CO2 at 37° C. overnight. On the day of the assay, medium was removed and 30 μL of 5% Calcium 6 FLIPR dye in assay buffer-HBSS (Life Technologies #14025) containing 20 mM HEPES (Life Technologies #15630-080) was added to the cells. Cells were incubated at 37° C. in the dark for 2 hours. Compounds were 3-fold serial diluted from 10 mM for 11-points using dimethyl sulfoxide. 1 μL of compound in DMSO was diluted in 82.3 μL assay buffer immediately before the assay. Using a FLIPR® TETRA® system, 15 μL of the (4×) compound solutions were first added to the cells, then 15 μL of LPA (EC80) diluted in of assay buffer supplemented with 0.1% BSA was added 3 minutes later to activate the receptor. Changes in fluorescence were measured at wavelengths of 515-575 nm over the course of the experimental run. IC50 values were calculated from curve fits of the ratio data using a four-parameter logistic Hill equation (Assay Explorer 3.3 Client).

T1 sequence (Q92633 whole entry): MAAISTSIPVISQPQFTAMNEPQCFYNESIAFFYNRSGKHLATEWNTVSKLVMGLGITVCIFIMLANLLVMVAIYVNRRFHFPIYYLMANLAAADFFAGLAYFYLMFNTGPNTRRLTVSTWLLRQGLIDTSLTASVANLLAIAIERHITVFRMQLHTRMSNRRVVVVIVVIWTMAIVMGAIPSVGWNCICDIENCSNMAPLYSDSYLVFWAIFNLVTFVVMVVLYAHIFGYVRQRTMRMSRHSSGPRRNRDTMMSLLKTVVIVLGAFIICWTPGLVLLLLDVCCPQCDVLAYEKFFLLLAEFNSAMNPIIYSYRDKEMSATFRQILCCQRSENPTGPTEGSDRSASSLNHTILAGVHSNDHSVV

Molecule | IC50 | Maximum Inhibition | Emax
5-[(3-methoxy-4-methylbenzoyl)(3-phenylpropyl)amino]pentanoic Acid [Example 28] | 398 nM | 72% | 
O=C(O)CCCCN(CCCc1ccccc1)C(=O)c1cc(Cl)cc(Cl)c1 [Example 12, 5-[(3,5-dichlorobenzoyl)(3-phenylpropyl)amino]pentanoic Acid] | 3240 nM |  | 55%
COc1c(F)cc(C(=O)N(CCCCC(=O)O)CCCc2ccccc2)cc1F [Example 13, 5-[(3,5-difluoro-4-methoxybenzoyl)(3-phenylpropyl)amino]pentanoic Acid] | 6170 nM |  | 48%
CCOc1cc(C(=O)N(CCCCC(=O)O)CCCc2ccccc2)ccn1 [Example 14, 5-[(2-ethoxypyridine-4-carbonyl)(3-phenylpropyl)amino]pentanoic Acid] | 942 nM |  | 41%
COc1cc(OC)cc(C(=O)N(CCCc2ccccc2)CCOCC(=O)O)c1 [Example 15, {2-[(3,5-dimethoxybenzoyl)(3-phenylpropyl)amino]ethoxy}acetic Acid] | 290 nM |  | 59%
Cc1c(Cl)cc(C(=O)N(CCCCC(=O)O)CCCc2ccccc2)cc1Cl [Example 16, 5-[(3,5-dichloro-4-methylbenzoyl)(3-phenylpropyl)amino]pentanoic Acid] | 985 nM |  | 70%
CCOc1cc(C(=O)N(CCCCC(=O)O)CCCc2ccccc2)cc(OCC)c1OCC [Example 21, 5-[(3-phenylpropyl)(3,4,5-triethoxybenzoyl)amino]pentanoic Acid] | 224 nM |  | 82%
O=C(O)CCCCN(CCCc1ccccc1)C(=O)c1ccc2c(c1)OCCCO2 [Example 23, 5-[(3,4-dihydro-2H-1,5-benzodioxepine-7-carbonyl)(3-phenylpropyl)amino]pentanoic Acid] | 12600 nM |  | 53%
COc1cc(C(=O)N(CCCCC(=O)O)CCCc2ccccc2)cc2ccoc12 [Example 24, 5-[(7-methoxy-1-benzofuran-5-carbonyl)(3-phenylpropyl)amino]pentanoic Acid] | 481 nM |  | 58%
O=C(O)CCCCN(CCCc1ccccc1)C(=O)C1(c2ccc(OC(F)(F)F)cc2)CC1 [Example 25, 5-[(3-phenylpropyl){1-[4-(trifluoromethoxy)phenyl]cyclopropane-1-carbonyl}amino]pentanoic Acid] | 29300 nM |  | 48%
O=C(O)CCCCN(CCCc1ccccc1)C(=O)c1cccc(OC(F)(F)F)c1 [Example 26, 5-{(3-phenylpropyl)[3-(trifluoromethoxy)benzoyl]amino}pentanoic Acid] | > 30000 nM |  | 50%
O=C(O)CCCCN(CCCc1ccccc1)C(=O)C1(c2ccc3c(c2)OCO3)CC1 [Example 27, 5-{[1-(2H-1,3-benzodioxol-5-yl)cyclopropane-1-carbonyl](3-phenylpropyl)amino}pentanoic Acid] | 1060 nM |  | 65%
COc1cc(OC(F)(F)F)cc(C(=O)N(CCCCC(=O)O)CCCc2ccccc2)c1 [Example 29, 5-{[3-methoxy-5-(trifluoromethoxy)benzoyl](3-phenylpropyl)amino}pentanoic Acid] | 309 nM |  | 79%
COc1cc(C(=O)N(CCCCC(=O)O)CCCc2ccc(Cl)cc2)cc(OC)c1C [Example 36, 5-{[3-(4-chlorophenyl)propyl](3,5-dimethoxy-4-methylbenzoyl)amino}pentanoic Acid] | 600 nM |  | 83%
COc1cc(C(=O)N(CCCCC(=O)O)CCCc2cccc(C(F)(F)F)c2)cc(OC)c1C [Example 40, 5-[(3,5-dimethoxy-4-methylbenzoyl){3-[3-(trifluoromethyl)phenyl]propyl}amino]pentanoic Acid] | 29300 nM |  | 45%
COc1cc(C(=O)N(CCCCC(=O)O)CCCc2ccc(C)cc2)cc(OC)c1C [Example 42, 5-{(3,5-dimethoxy-4-methylbenzoyl)[3-(4-methylphenyl)propyl]amino}pentanoic Acid] | 236 nM |  | 90%
COc1ccc(CCCN(CCCCC(=O)O)C(=O)c2cc(OC)c(C)c(OC)c2)cc1 [Example 43, 5-{(3,5-dimethoxy-4-methylbenzoyl)[3-(4-methoxyphenyl)propyl]amino}pentanoic Acid] | 23300 nM |  | 55%

Molecule | IC50 | Maximum Inhibition | Emax
COc1cc(C(=O)N(CCCc2ccccc2)CC(=O)N[C@@H](Cc2ccccc2)C(=O)O)cc(OC)c1C [Example 46, N-(3,5-dimethoxy-4-methylbenzoyl)-N-(3-phenylpropyl)glycylphenylalanine] | 128 nM |  | 66%
COc1cc(C(=O)N(CCCCC(=O)O)CCCc2ccc(Cl)cc2Cl)cc(OC)c1C [Example 49, 5-{[3-(2,4-dichlorophenyl)propyl](3,5-dimethoxy-4-methylbenzoyl)amino}pentanoic Acid] | 24300 nM |  | 58%
COc1cc(C(=O)N(CCCc2ccccc2)CC(=O)NCC(=O)O)cc(OC)c1C [Example 51, N-(3,5-dimethoxy-4-methylbenzoyl)-N-(3-phenylpropyl)glycylglycine] | 238 nM |  | 62%
COc1cc(C(=O)N(CCCc2ccccc2)CC[S+]([O-])CC(=O)O)cc(OC)c1C (centres unmarked) [Example 53, {2-[(3,5-dimethoxy-4-methylbenzoyl)(3-phenylpropyl)amino]ethanesulfinyl}acetic Acid] | 239 nM |  | 63%
O=C(O)CCCCN(CCCc1ccccc1)C(=O)C1(c2ccncc2)CC1 [Example 64, 5-{(3-phenylpropyl)[1-(pyridin-4-yl)cyclopropane-1-carbonyl]amino}pentanoic Acid] | 1230 nM |  | 54%
COc1ccc2c(C(=O)N(CCCCC(=O)O)CCCc3ccccc3)c[nH]c2c1 [Example 65, 5-[(6-methoxy-1H-indole-3-carbonyl)(3-phenylpropyl)amino]pentanoic Acid] | 5020 nM |  | 49%
COc1ccc([C@@H](OC)C(=O)N(CCCCC(=O)O)CCCc2ccccc2)cc1 [Example 66, 5-{[(2R)-2-methoxy-2-(4-methoxyphenyl)acetyl](3-phenylpropyl)amino}pentanoic Acid] | 312 nM |  | 71%
COc1cc(C(=O)N(CCCCP(=O)(O)O)CCCc2ccccc2)cc(OC)c1C [Example 71, {4-[(3,5-dimethoxy-4-methylbenzoyl)(3-phenylpropyl)amino]butyl}phosphonic Acid] | 12 nM |  | 91%
COc1cc(C(=O)N(CCCc2ccccc2)CCCC(C)P(=O)(O)O)cc(OC)c1C (centres unmarked) [Example 72, {5-[(3,5-dimethoxy-4-methylbenzoyl)(3-phenylpropyl)amino]pentan-2-yl}phosphonic Acid] | 26 nM |  | 99%
COc1cc(C(=O)N(CCCCC(=O)O)CCCc2ccccc2)cc(OC)c1OCCO [Example 88, 5-{[4-(2-hydroxyethoxy)-3,5-dimethoxybenzoyl](3-phenylpropyl)amino}pentanoic Acid] | 293 nM |  | 91%
COc1cc(C(=O)N(CCCc2ccccc2)CCSCC(=O)O)cc(OC)c1F [Example 100, ({2-[(4-fluoro-3,5-dimethoxybenzoyl)(3-phenylpropyl)amino]ethyl}sulfanyl)acetic Acid] | > 30000 nM |  | 60%
COc1cc(OC)cc(C(=O)N(CCCc2ccccc2)CCSCC(=O)O)c1 [Example 101, ({2-[(3,5-dimethoxybenzoyl)(3-phenylpropyl)amino]ethyl}sulfanyl)acetic Acid] | 6950 nM |  | 59%
COc1ccc(C2(C(=O)N(CCCCC(=O)O)CCCc3ccccc3)CCCC2)cc1 [Example 106, 5-{[1-(4-methoxyphenyl)cyclopentane-1-carbonyl](3-phenylpropyl)amino}pentanoic Acid] | 766 nM |  | 55%
COc1cc(C(=O)N(CCCc2ccc(F)cc2F)CCSCC(=O)O)cc(OC)c1C [Example 114, [(2-{[3-(2,4-difluorophenyl)propyl](3,5-dimethoxy-4-methylbenzoyl)amino}ethyl)sulfanyl]acetic Acid] | 671 nM |  | 76%
COc1cc(C(=O)N(CCCc2ccc(F)cc2)CCSCC(=O)O)cc(OC)c1C [Example 118, [(2-{(3,5-dimethoxy-4-methylbenzoyl)[3-(4-fluorophenyl)propyl]amino}ethyl)sulfanyl]acetic Acid] | 247 nM |  | 78%
COc1cc(C(=O)N(C/C=C/CC(=O)O)CCCc2ccccc2)cc(OC)c1C [Example 121, (3E)-5-[(3,5-dimethoxy-4-methylbenzoyl)(3-phenylpropyl)amino]pent-3-enoic Acid] | 503 nM |  | 86%
COc1cc(C(=O)N(CCCCC(=O)NS(=O)(=O)c2ccc(F)cc2)CCCc2ccccc2)cc(OC)c1C [Example 140, N-{5-[(4-fluorobenzene-1-sulfonyl)amino]-5-oxopentyl}-3,5-dimethoxy-4-methyl-N-(3-phenylpropyl)benzamide] | 143 nM |  | 89%
